# According to patent US6521623B1, “N,N'-disubstituted benzimidazolone derivatives with affinity at the serotonin and dopamine receptors” (Boehringer Ingelheim Pharma KG, priority 2000, dated 2003):
# Legend:
# 5-HT2A [1] = target: T1, 5-HT2A (Rattus norvegicus, UniProt P14842); assay: 5-HT2A Radioligand Receptor Binding Assay ([3H]-Ketanserin, cerebral frontal cortex membranes); settings: 0.5 nM [3H]-Ketanserin
# T1 construct: Cerebral frontal cortex was homogenized in 10 volumes of ice cold 0.32 M sucrose; from tissue; host or cells: rat cerebral frontal cortex membranes
# Protocol: 5-HT2A Radioligand Receptor Binding Assay
# Rats (male Sprague-Dawley, 200-250 g) were used. Cerebral frontal cortex was homogenized in 10 volumes of ice cold 0.32 M sucrose in 5 mM Tris-HCl ([…]) buffer. After centrifugation of the homogenate (1,000×g for 10 minutes) the supernatant was then recentrifuged at 48,000×g for 15 minutes. The resulting pellet was gently homogenized in an equal volume of 50 mM Tris-HCl buffer (pH 7.4) and incubated at 37° C. for 10 minutes. Membranes were then collected by centrifugation as above described and finally resuspended in 10 volumes of 50 mM Tris-HCl buffer (pH 7.4).
# For displacement experiments membranes (980 μl) were diluted in 50 mM Tris-HCl buffer (pH 7.4) to a final concentration of 1:100 (w/v); the tissue suspension was then incubated at 37° C. for 10 minutes in a final volume of 1 ml in the presence of 0.5 nM [^3H]-Ketanserin. Non-specific binding was determined by incubating similar samples with unlabelled methysergide (100 μM). After incubation, samples prepared in a 24 wells cell culture cluster (Costar) were rapidly filtered by Inotech Cell Harvester (IH 201 filters). The filters were washed three times with 2 ml ice-cold Tris-HCl buffer and placed in polyethylene vials, then 4 ml of Filter Count scintillation cocktail (Packard) were added. The radioactivity present was counted by liquid scintillation spectrometry.
# The affinity values (IC50) for the compounds were obtained by a nonlinear least squares regression analysis on the basis of a one binding site model.
# 5-HT1A = target: T2, 5-HT1A (Homo sapiens, UniProt P08908); assay: 5HT1A Radioligand Receptor Binding Assay ([3H]-8-OH-DPAT, CHO cell membranes); parameters: expressed in transfected cells; host or cells: CHO cells; settings: CHO membranes, human 5-HT1A
# T2 sequence (P08908 1-422): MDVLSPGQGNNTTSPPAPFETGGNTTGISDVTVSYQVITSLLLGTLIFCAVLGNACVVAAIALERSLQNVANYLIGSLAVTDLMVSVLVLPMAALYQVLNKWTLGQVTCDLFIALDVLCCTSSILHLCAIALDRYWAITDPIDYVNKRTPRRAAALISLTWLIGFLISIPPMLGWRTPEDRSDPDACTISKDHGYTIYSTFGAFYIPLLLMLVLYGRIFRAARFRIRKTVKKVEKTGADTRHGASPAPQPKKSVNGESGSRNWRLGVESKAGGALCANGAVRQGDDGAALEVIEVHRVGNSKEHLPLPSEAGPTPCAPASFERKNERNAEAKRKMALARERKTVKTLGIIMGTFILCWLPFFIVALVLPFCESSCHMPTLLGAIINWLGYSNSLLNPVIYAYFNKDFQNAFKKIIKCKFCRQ
# Outline: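 CHO-cell membranes expressing human 5-HT1A incubated with [3H]-8-OH-DPAT (0.6-0.7 nM) for 60 minutes at 27° C, filtered and scintillation counted; non-specific binding defined with 10^−5 M 5-HT. Compounds tested singly at 10^−7 M as % of control specific binding; IC50 from one-site nonlinear regression.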
# 5-HT2A [2] = target: 5-HT2A (Mus musculus, UniProt P35363); assay: 5-HT2 Functional Assay (PI Turnover) in cerebral cortex miniprisms; assay type: biochemical; settings: 10 μM compound, inhibition of PI turnover accumulation induced by 100 μM 5-HT
# Protocol: 5-H T2 Functional Assay (PI Turnover)
# Cross-chopped miniprisms (350×350 μm) were prepared from mouse whole cerebral cortices and incubated for 60 minutes at 37° C. in Krebs-Henseleit buffer containing 2 g/l glucose.
# Cerebral cortex miniprisms were distributed in vials and incubated for 30 minutes with approximately 170 nM [^3H]-myoinositol (10-20 Ci/mmol) and […] lithium chloride. Samples were divided in different groups in triplicate: control, 100 μM 5-HT, 10 and 30 μM flibanserin+100 μM 5-HT, as standards, and 10 μM of the different compound under investigation+100 μM 5-HT. When 5-HT was added the incubation continued for 45 minutes. Compounds under investigation and flibanserin were added 10 minutes before dispensing 5-HT. Incubation was terminated by the addition of 940 μl chloroform-methanol (1:2 v/v). Further aliquots of chloroform (310 μl) and water (310 μl) were added and labeled inositol phosphates (1 Ps) were extracted from the aqueous phase by ion exchange chromatography using Dowex resin in the formate form. After addition of 10 ml of PicoFluor 40 scintillation cocktail (Packard), the radioactivity present in an aliquot (400 μl) of the aqueous extract was counted by liquid scintillation spectrometry.
# T1 sequence (P14842 whole entry): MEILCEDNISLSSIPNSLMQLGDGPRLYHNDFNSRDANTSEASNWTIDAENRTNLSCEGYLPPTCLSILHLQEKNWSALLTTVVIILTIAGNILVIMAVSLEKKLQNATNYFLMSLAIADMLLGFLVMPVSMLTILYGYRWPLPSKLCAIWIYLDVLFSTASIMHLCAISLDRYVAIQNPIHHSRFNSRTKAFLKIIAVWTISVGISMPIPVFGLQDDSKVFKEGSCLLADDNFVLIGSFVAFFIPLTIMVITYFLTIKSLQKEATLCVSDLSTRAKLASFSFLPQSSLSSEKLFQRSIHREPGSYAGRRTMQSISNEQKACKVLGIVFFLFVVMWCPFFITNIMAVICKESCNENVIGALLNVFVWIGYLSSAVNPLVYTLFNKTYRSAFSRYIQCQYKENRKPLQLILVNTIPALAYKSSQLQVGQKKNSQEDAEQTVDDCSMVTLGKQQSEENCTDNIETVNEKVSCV
# Chain of 5-HT2A (Mus musculus, UniProt P35363) (P35363 whole entry, looked up): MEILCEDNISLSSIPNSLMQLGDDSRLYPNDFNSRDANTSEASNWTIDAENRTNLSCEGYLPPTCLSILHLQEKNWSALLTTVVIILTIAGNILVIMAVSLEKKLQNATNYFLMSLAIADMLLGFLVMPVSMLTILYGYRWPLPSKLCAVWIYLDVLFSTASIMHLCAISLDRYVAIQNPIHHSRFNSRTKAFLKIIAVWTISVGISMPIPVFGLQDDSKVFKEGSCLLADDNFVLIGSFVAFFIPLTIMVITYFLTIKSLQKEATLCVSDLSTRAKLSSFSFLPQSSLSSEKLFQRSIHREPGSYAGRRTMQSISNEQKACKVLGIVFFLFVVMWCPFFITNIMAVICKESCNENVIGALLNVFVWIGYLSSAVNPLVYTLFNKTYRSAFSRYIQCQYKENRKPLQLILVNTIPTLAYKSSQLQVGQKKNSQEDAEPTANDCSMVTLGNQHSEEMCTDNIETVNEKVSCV
smiles,measurement,setting,value
CCNC(=O)OCCn1c(=O)n(CCN2CCN(c3cccc(C)c3C)CC2)c2ccccc21 [Compound 215],IC50,5-HT2A [1],3.2 nM
same,IC50,"5-HT1A; [3H]-8-OH-DPAT, read-out: 5-HT1A Receptor Binding IC50",0.85 nM
same,inhibition at 0.1 µM,"5-HT1A; compound 10^−7 M, singlicate, [3H]-8-OH-DPAT 0.6-0.7 nM",98%
same,5-HT2A PI Turnover % inhibition,5-HT2A [2],83%
